Values quoted from earlier work as cited in patent publication US20260144768A1, “MODIFIED RELEASE GAMMA-HYDROXYBUTYRATE FORMULATIONS HAVING IMPROVED PHARMACOKINETICS” (Flamel Ireland Limited, priority 2022, published 2026).
Like-named read-outs stand apart in the source and are kept apart here.

What was measured:
[1] = tested on: plasma proteins; conditions: GHB 3 mcg/mL to 300 mcg/mL
[2] = not given; remark: listed apart in the source
[3] = tested on: bacterial gene mutation; conditions: in vitro
[4] = tested on: CYP3A; conditions: up to 3 mM (378 mcg/mL)
[5] = molecular target: T1, CYP1A2 (Homo sapiens, UniProt P05177); conditions: up to 3 mM (378 mcg/mL)
T1 sequence (P05177 1-516): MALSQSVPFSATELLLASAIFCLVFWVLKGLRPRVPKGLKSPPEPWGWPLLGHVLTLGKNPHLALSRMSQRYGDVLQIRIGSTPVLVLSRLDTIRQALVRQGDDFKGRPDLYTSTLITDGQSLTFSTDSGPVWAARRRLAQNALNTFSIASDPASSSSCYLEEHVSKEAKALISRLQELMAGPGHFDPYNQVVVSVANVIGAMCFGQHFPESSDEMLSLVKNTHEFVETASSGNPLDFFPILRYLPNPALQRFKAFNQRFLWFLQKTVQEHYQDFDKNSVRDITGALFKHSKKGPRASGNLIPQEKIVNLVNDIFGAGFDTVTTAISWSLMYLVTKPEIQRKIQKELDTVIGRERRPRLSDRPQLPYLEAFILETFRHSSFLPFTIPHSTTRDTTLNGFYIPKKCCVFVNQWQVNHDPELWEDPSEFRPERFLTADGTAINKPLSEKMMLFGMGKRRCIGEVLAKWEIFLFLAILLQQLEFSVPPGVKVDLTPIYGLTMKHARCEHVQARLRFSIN

[6] = tested on: rat; conditions: in vivo
[7] = tested on: rats
[8] = tested on: pregnant rats; conditions: 150, 350, or 1,000 mg/kg/day oral
[9] = tested on: mammalian cells; conditions: in vitro
[10] = tested on: pregnant rabbits; conditions: 300, 600, or 1,200 mg/kg/day oral
[11] = molecular target: CYP2C9 (Homo sapiens, UniProt P11712); conditions: up to 3 mM (378 mcg/mL)
Sequence of CYP2C9 (P11712 whole entry): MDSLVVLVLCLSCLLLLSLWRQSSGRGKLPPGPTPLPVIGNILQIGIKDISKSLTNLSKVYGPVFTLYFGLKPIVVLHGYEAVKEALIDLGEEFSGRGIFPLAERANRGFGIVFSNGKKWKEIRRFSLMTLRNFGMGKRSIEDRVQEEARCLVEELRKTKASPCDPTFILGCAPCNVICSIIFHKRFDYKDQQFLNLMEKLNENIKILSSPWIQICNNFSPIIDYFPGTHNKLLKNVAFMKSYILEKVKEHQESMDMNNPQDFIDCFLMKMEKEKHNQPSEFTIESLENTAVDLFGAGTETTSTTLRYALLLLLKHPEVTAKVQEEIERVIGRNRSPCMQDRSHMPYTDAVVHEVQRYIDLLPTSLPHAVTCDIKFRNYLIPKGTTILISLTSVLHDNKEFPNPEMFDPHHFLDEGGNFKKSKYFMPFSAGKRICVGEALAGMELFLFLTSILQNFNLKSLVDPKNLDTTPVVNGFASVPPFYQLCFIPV

[12] = molecular target: CYP2C19 (Homo sapiens, UniProt P33261); conditions: up to 3 mM (378 mcg/mL)
Sequence of CYP2C19 (P33261 whole entry): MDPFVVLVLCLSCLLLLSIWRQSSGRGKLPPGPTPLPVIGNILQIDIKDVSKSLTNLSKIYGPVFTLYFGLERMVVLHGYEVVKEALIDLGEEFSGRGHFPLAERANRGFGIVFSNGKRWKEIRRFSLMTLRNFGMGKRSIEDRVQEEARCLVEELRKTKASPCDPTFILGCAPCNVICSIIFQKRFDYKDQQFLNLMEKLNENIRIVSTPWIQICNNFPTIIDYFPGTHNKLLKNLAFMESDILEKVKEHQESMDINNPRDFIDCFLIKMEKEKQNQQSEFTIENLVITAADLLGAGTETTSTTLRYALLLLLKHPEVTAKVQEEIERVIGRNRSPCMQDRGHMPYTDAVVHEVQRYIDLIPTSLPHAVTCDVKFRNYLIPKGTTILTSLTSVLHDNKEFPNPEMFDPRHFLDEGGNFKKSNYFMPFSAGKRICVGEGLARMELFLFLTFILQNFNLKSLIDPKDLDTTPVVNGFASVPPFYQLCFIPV

[13] = molecular target: CYP2D6 (Homo sapiens, UniProt P10635); conditions: up to 3 mM (378 mcg/mL)
Sequence of CYP2D6 (P10635 whole entry): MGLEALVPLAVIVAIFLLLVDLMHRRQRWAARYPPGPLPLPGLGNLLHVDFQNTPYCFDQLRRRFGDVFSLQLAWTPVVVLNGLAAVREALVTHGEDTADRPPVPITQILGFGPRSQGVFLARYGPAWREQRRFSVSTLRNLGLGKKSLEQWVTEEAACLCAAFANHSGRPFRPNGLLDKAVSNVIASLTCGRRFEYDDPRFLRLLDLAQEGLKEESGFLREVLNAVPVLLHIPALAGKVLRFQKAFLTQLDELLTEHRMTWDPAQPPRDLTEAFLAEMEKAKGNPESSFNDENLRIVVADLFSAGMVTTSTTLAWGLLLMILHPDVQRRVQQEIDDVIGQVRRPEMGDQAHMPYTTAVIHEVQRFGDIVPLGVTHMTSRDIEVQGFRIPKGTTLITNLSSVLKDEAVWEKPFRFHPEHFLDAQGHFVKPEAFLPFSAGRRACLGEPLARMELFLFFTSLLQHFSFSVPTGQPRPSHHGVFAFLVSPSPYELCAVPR

[14] = tested on: rats; remark: listed apart in the source
[15] = tested on: rats; conditions: 150, 350, or 1,000 mg/kg/day oral
[16] = molecular target: CYP2E1 (Homo sapiens, UniProt P05181); conditions: up to 3 mM (378 mcg/mL)
Sequence of CYP2E1 (P05181 whole entry): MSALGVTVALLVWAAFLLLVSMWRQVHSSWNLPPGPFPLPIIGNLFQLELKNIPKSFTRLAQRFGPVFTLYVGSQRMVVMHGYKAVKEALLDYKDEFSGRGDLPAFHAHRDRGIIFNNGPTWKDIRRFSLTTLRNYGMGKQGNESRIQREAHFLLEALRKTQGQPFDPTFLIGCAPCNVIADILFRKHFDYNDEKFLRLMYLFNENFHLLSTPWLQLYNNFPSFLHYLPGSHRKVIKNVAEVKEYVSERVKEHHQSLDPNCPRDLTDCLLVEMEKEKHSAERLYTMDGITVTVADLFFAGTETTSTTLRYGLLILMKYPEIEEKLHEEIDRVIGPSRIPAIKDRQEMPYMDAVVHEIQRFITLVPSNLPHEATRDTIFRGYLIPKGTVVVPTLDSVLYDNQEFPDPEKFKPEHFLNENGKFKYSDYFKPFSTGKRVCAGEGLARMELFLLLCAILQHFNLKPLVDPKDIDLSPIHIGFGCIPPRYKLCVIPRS

[17] = 6 g per day (2 × 3 g) with ibuprofen 800 mg/dose four times per day
[18] = tested on: mouse; conditions: 2-year study
[19] = tested on: rat; conditions: 2-year study

O=C(O)CCCO [GHB, gamma-hydroxybutyrate]
Bound to plasma proteins [1]: less than 1% | Apparent oral clearance (Child's Class A): 4.5 mL/min/kg | Mean t1/2 (Child's Class A): 32 min | Apparent oral clearance (Child's Class C): 4.1 mL/min/kg | Mean t1/2 (Child's Class C): 59 min | Mean t1/2 (control patients): 22 min | Apparent oral clearance (healthy adults): 9.1 mL/min/kg | Apparent volume of distribution ([2]; in vivo): 0.19 to 0.384 L/kg | Elimination half-life ([2]; in vivo): 30 to 60 min | Unchanged drug in human urine ([2]; within 6 to 8 hours after dosing): less than 5%

O=C([O-])CCCO.[Na+] [sodium oxybate, sodium 4-hydroxybutyrate]
Bacterial gene mutation [3]: negative | Inhibition of CYP3A activity [4]: does not significantly inhibit | Inhibition of CYP1A2 activity [5]: does not significantly inhibit | Micronucleus [6]: negative | Plasma exposure (AUC) relative to humans at the MRHD of 9 g per night ([7]; highest dose tested): 2 times | Tumors ([7]; oral doses up to 1,000 mg/kg/day): no increase in tumors | Developmental toxicity [8]: no clear evidence of developmental toxicity | Chromosomal aberration [9]: negative | Developmental toxicity [10]: no clear evidence of developmental toxicity | Inhibition of CYP2C9 activity [11]: does not significantly inhibit | Inhibition of CYP2C19 activity [12]: does not significantly inhibit | Inhibition of CYP2D6 activity [13]: does not significantly inhibit | Mortality ([14]; 0, 100, 300, or 900 mg/kg/day, two highest doses): mortality was observed | Findings at the highest dose tested ([14]; 900 mg/kg/day): Reduced body weight gain in males and females and delayed sexual maturation in males | Effects on fertility [15]: no adverse effects on fertility | Inhibition of CYP2E1 activity [16]: does not significantly inhibit | Systemic exposure to GHB on co-administration [17]: comparable

O=C1CCCO1 [gamma-butyrolactone]
Carcinogenic activity [18]: no clear evidence of carcinogenic activity | Carcinogenic activity [19]: no clear evidence of carcinogenic activity
